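Following 48 hours of exposure in 96-well plates, responses at five concentrations were used to interpolate endpoints linearly. Abbreviation: GI50, concentration required for 50% inhibition of growth. TGI denotes the concentration required for complete inhibition of growth.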
Tests used:
Assay in all cases: inhibition of tumour cell growth, NCI panel, 48 h
[1] = system: MCF7 breast
[2] = system: RXF 393 renal
[3] = system: SF-539 CNS
[4] = system: RPMI-8226 leukemia
[5] = system: HCT-15 colon
[6] = system: CCRF-CEM leukemia
[7] = system: HOP-62 NSCLC
[8] = system: MDA-MB-435
[9] = system: MOLT-4 leukemia
[10] = system: HOP-92 NSCLC
[11] = system: UACC-62 melanoma
[12] = system: M14 melanoma
[13] = system: KM12 colon
[14] = system: HCC-2998 colon
[15] = system: OVCAR-3 ovarian
[16] = system: SF-295 CNS
[17] = system: IGROV1 ovarian
[18] = system: SNB-75 CNS
[19] = system: HS 578T breast
[20] = system: SK-MEL-2 melanoma
[21] = system: SW-620 colon
[22] = system: A498 renal
[23] = system: NCI-H460 lung
[24] = system: HL-60(TB) leukemia
[25] = system: NCI-H23 lung
[26] = system: SNB-19 CNS
[27] = system: ACHN renal
[28] = system: MDA-MB-231 breast
[29] = system: UACC-257 melanoma
[30] = system: CAKI-1 renal
[31] = system: HT29 colon
[32] = system: LOX IMVI melanoma
[33] = system: SK-MEL-28 melanoma
[34] = system: SN12C renal
[35] = system: OVCAR-8 ovarian
[36] = system: NCI/ADR-RES ovarian
[37] = system: NCI-H522 lung
[38] = system: T-47D breast
[39] = system: OVCAR-5 ovarian
[40] = system: HCT-116 colon
[41] = system: UO-31 renal
[42] = system: PC-3 prostate
[43] = system: COLO 205 colon
[44] = system: BT-549 breast
[45] = system: SR leukemia
[46] = system: TK-10 renal
[47] = system: U251 CNS
[48] = system: SK-OV-3 ovarian
[49] = system: DU-145 prostate
[50] = system: K-562 leukemia
[51] = system: A549 NSCLC
[52] = system: 786-0 renal
[53] = system: SF-268 CNS
[54] = system: NCI-H226 lung
[55] = system: EKVX NSCLC
[56] = system: SK-MEL-5 melanoma

`CC(=O)OC1Oc2ccc(C)cc2-c2oc(=O)c(-c3cc4ccccc4oc3=O)cc21` (configuration not stated) was tested, and the GI50 [1] was 1.98 µM, the TGI [1] was 7.01 µM and the GI50 [2] was 3.01 µM. The TGI [2] was 14.3 µM, the GI50 [3] was 2.07 µM and the TGI [3] was 6.21 µM. The GI50 [4] was 0.943 µM, the TGI [4] was 2.41 µM and the GI50 [5] was 1.87 µM. It also gave a TGI [5] of 11.6 µM, a GI50 [6] of 1.38 µM and a TGI [6] of 5.42 µM. The GI50 [7] was 3.77 µM, the TGI [7] was 12.8 µM and the GI50 [8] was 0.985 µM. The TGI [8] was 2.7 µM, the GI50 [9] was 1.8 µM and the TGI [9] was 3.99 µM. For the same molecule, the GI50 [10] was 1.12 µM, the TGI [10] was 3.61 µM and the GI50 [11] was 2.57 µM. The TGI [11] was 9.19 µM, the GI50 [12] was 1.2 µM and the TGI [12] was 2.78 µM. For the same molecule, the GI50 [13] was 1.43 µM, the TGI [13] was 5.94 µM and the GI50 [14] was 2.43 µM. The TGI [14] was 9.33 µM, the GI50 [15] was 1.19 µM and the TGI [15] was 8.15 µM. For the same molecule, the GI50 [16] was 2.13 µM, the TGI [16] was 13 µM and the GI50 [17] was 4 µM. For the same molecule, the TGI [17] was 37.7 µM, the GI50 [18] was 2.88 µM and the TGI [18] was 14.4 µM. It also gave a GI50 [19] of 0.142 µM, a TGI [19] of 8.09 µM and a GI50 [20] of 8.14 µM. For the same molecule, the TGI [20] was 40.7 µM, the GI50 [21] was 6.05 µM and the TGI [21] was 29.9 µM. It also gave a GI50 [22] of 0.612 µM, a TGI [22] of 4.07 µM and a GI50 [23] of 2.64 µM. It also gave a TGI [23] of 17.8 µM, a GI50 [24] of 0.822 µM and a TGI [24] of 3.08 µM. The GI50 [25] was 2.82 µM, the TGI [25] was 12 µM and the GI50 [26] was 3.82 µM. The TGI [26] was 25.5 µM, the GI50 [27] was 3.06 µM and the TGI [27] was 11.4 µM. For the same molecule, the GI50 [28] was 1.83 µM, the TGI [28] was 5.67 µM and the GI50 [29] was 8.52 µM. The TGI [29] was 27.4 µM, the GI50 [30] was 2.56 µM and the TGI [30] was 7.69 µM. The GI50 [31] was 2.08 µM, the TGI [31] was 34 µM and the GI50 [32] was 1.2 µM. It also gave a TGI [32] of 3.71 µM, a GI50 [33] of 5.84 µM and a TGI [33] of 27.1 µM. It also gave a GI50 [34] of 2.77 µM, a TGI [34] of 9.89 µM and a GI50 [35] of 3.8 µM. The TGI [35] was 8.16 µM, the GI50 [36] was 2.54 µM and the TGI [36] was 18.1 µM. It also gave a GI50 [37] of 8.96 µM, a TGI [37] of 34.6 µM and a GI50 [38] of 1.5 µM. It also gave a TGI [38] of 6.08 µM, a GI50 [39] of 3.38 µM and a TGI [39] of 21 µM. For the same molecule, the GI50 [40] was 2.08 µM, the TGI [40] was 8.62 µM and the GI50 [41] was 7.9 µM. The TGI [41] was 29.8 µM, the GI50 [42] was 2.13 µM and the TGI [42] was 8.54 µM. The GI50 [43] was 2.77 µM, the TGI [43] was 15.7 µM and the GI50 [44] was 3.03 µM. It also gave a TGI [44] of 8.86 µM, a GI50 [45] of 0.571 µM and a TGI [45] of 2.04 µM. For the same molecule, the GI50 [46] was 1.47 µM, the TGI [46] was 7.93 µM and the GI50 [47] was 2.67 µM. It also gave a TGI [47] of 26.8 µM, a GI50 [48] of 1.8 µM and a TGI [48] of 8.57 µM. It also gave a GI50 [49] of 1.92 µM, a TGI [49] of 8.1 µM and a GI50 [50] of 2.1 µM. The TGI [50] was 14.1 µM, the GI50 [51] was 4.55 µM and the TGI [51] was 20.8 µM. The GI50 [52] was 1.92 µM, the TGI [52] was 7.74 µM and the GI50 [53] was 3.27 µM. For the same molecule, the TGI [53] was 12.2 µM, the GI50 [54] was 4.61 µM and the TGI [54] was 16.5 µM. The GI50 [55] was 6.02 µM, the TGI [55] was 23.8 µM and the GI50 [56] was 2.67 µM. The TGI [56] was 11.6 µM.

Source: PubChem BioAssay (NCI)
